Converted amounts (≈) assume the structure as drawn. The source made the active and inactive calls. The calls are words filed in the database; no cut-off is given here.
Assays:
[1] = target: T1, Programmed cell death protein 1/Programmed cell death 1 ligand 1 (Homo sapiens, UniProt Q9NZQ7); experiment: Inhibition of PD-1/PD-L1 interaction (unknown origin) incubated for 15 min by HTRF assay; assay type: protein-complex assay
CHO-K1 [2] = experiment: Cytotoxicity against […] cells expressing PD-L1 assessed as reduction in cell viability at 50 uM incubated for 6 hrs by CCK-8 assay; assay type: toxicity, cell-based, Cricetulus griseus; conditions: chinese hamster, cho-k1, 6 h
[3] = target: Programmed cell death 1 ligand 1 (Homo sapiens, UniProt Q9NZQ7); experiment: Binding affinity to his-tagged human PD-L1 assessed as dissociation constant by SPR analysis
[4] = target: Programmed cell death protein 1 (Homo sapiens) (UniProt Q15116); experiment: Inhibition of human PD-1 expressed in Jurkat T cells co-transfected with NFAT by automated microplate spectrophotometer analysis; assay type: cell-based
[5] = target: T2, Programmed cell death protein 1/Programmed cell death 1 ligand 1 (Homo sapiens, UniProt Q15116+Q9NZQ7); experiment: Inhibition of interaction of human PD-1 expressed in Jurkat T cells co-transfected with NFAT/human PD-L1 expressed in CHO-K1 cells co-expressing aAPC assessed as maximum relative light unit preincubated with CHO-K1 cells followed by Jurkat cell addition and measured after 6 hrs by automated microplate spectrophotometer analysis; assay type: cell-based
Jurkat = experiment: Cytotoxicity against human Jurkat cells expressing PD-1 assessed as reduction in cell viability at 50 uM incubated for 6 hrs by CCK-8 assay; assay type: functional, cell-based
[6] = target: T1, Programmed cell death protein 1/Programmed cell death 1 ligand 1; experiment: (§1) Inhibition of interaction of human PD-1 expressed in Jurkat T cells co-transfected with NFAT/human PD-L1 expressed in CHO-K1 cells co-expressing aAPC preincubated with CHO-K1 cells followed by Jurkat cell addition and measured after 6 hrs by automated microplate spectrophotometer analysis; assay type: cell-based
[7] = target: T2, Programmed cell death protein 1/Programmed cell death 1 ligand 1; experiment: as §1; assay type: cell-based; conditions: cho-k1
[8] = Tmax in Sprague-Dawley rat at 50 mg/kg, po measured upto 24 hrs by LC-MS/MS analysis; assay type: ADME, organism-based; conditions: in vivo
[9] = Lipophilicity, log D of the compound at pH 7.4; assay type: physicochemical; conditions: buffer
[10] = Cmax in Sprague-Dawley rat at 50 mg/kg, po measured upto 24 hrs by LC-MS/MS analysis; assay type: ADME, organism-based; conditions: in vivo
[11] = AUC (0 to t) in Sprague-Dawley rat at 50 mg/kg, po measured upto 24 hrs by LC-MS/MS analysis; assay type: ADME, organism-based; conditions: in vivo
[12] = Stability in human liver microsomes assessed as half life; assay type: ADME, Microsome
CHO-K1 [13] = experiment: Induction of PD-L1 internalization in CHO-K1 cells assessed as increase in PD-L1 concentration in nucleus at 10 uM incubated for 12 hrs by DIL-staining based confocal microscopic analysis analysis; assay type: functional, cell-based; conditions: Cricetulus griseus
CHO-K1 [14] = experiment: Reduction in cell surface PD-L1 expression in CHO-K1 cells expressing aAPC at 10 uM incubated for 24 hrs by immunofluorescence based microscopic analysis; assay type: functional; conditions: Cricetulus griseus
[15] = target: Voltage-gated inwardly rectifying potassium channel KCNH2 (Homo sapiens, UniProt Q12809); experiment: Inhibition of hERG upto 30 uM; assay type: toxicity
PBMC [16] = experiment: Induction of antitumor immunity in human PBMC cells expressing PD-L1 assessed as increase in IFN-gamma expression incubated for 12 hrs by ELISA analysis; assay type: functional, cell-based; conditions: dose 0.1-10 µM
[17] = Half life in Sprague-Dawley rat at 50 mg/kg, po measured upto 24 hrs by LC-MS/MS analysis; assay type: ADME, organism-based; conditions: in vivo
[18] = Mutagenicity in Salmonella typhimurium TA100 by mini-Ames test; assay type: toxicity; conditions: salmonella enterica subsp. enterica serovar typhimurium
[19] = target: Programmed cell death 1 ligand 1 (Mus musculus, UniProt Q9EP73); experiment: Binding affinity to his-tagged mouse PD-L1 assessed as dissociation constant by SPR analysis
CHO-K1 [20] = experiment: Reduction in cell surface PD-L1 expression in CHO-K1 cells expressing aAPC incubated for 24 hrs by flow cytometry analysis; assay type: functional, cell-based; conditions: Cricetulus griseus, dose 0.1-10 µM
PBMC [21] = experiment: Induction of antitumor immunity in human PBMC cells assessed as increase in IFN-gamma expression at 0.1 to 10 uM incubated for 12 hrs by ELISA analysis; assay type: functional, cell-based; conditions: dose 0.1-10 µM
[22] = Mutagenicity in Salmonella typhimurium TA98 by mini-Ames test; assay type: toxicity; conditions: salmonella enterica subsp. enterica serovar typhimurium
CHO-K1 [23] = experiment: Induction of PD-L1 internalization in CHO-K1 cells assessed as increase in PD-L1 concentration in cytoplasm at 10 uM incubated for 12 hrs by DIL-staining based confocal microscopic analysis analysis; assay type: functional, cell-based; conditions: Cricetulus griseus
PBMC [24] = experiment: Induction of antitumor immunity in human PBMC cells expressing PD-L1 assessed as increase in IL-2 expression incubated for 12 hrs by ELISA analysis; assay type: functional, cell-based; conditions: dose 0.1-10 µM
MC-38 [25] = experiment: Cytotoxicity against mouse MC38 cells assessed as effect on cell viability at 0.07 to 150 uM incubated for 48 hrs by CCK-8 assay; assay type: functional, cell-based; conditions: dose 0.07-150 µM
[26] = Water solubility of the compound; assay type: physicochemical
CT26 = experiment: Cytotoxicity against mouse CT26 cells assessed as effect on cell viability at 0.07 to 150 uM incubated for 48 hrs by CCK-8 assay; assay type: functional, cell-based; conditions: dose 0.07-150 µM
MC-38 [27] = experiment: Antitumor activity against mouse MC38 cells implanted in C57BL/6J mouse assessed as tumor growth inhibition at 5 mg/kg, po measured for 20 days; assay type: functional; conditions: MC-38, 480 h, time 20 day, read-out: TGI

Sequence of Programmed cell death protein 1 (Homo sapiens) (Q15116 whole entry): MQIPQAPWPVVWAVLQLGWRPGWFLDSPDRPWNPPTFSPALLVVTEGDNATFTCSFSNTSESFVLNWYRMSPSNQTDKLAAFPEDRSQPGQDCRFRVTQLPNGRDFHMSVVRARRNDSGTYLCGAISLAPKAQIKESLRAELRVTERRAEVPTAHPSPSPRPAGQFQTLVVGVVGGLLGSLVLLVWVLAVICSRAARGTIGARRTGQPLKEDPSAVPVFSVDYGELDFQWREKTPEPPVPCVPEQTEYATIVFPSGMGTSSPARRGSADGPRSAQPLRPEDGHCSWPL
T1 sequence (Q15116 whole entry): as above
T1 sequence (Q9NZQ7 whole entry): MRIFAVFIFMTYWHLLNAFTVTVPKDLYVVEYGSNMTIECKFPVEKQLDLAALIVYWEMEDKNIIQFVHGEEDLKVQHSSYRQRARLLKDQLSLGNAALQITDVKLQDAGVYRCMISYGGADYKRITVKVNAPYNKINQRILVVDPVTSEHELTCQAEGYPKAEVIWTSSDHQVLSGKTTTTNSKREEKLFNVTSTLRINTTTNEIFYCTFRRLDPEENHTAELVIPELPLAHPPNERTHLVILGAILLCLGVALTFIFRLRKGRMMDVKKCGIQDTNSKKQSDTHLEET
Sequence of Programmed cell death 1 ligand 1 (Homo sapiens, UniProt Q9NZQ7) (Q9NZQ7 whole entry): as above
Sequence of Programmed cell death 1 ligand 1 (Mus musculus, UniProt Q9EP73) (Q9EP73 whole entry): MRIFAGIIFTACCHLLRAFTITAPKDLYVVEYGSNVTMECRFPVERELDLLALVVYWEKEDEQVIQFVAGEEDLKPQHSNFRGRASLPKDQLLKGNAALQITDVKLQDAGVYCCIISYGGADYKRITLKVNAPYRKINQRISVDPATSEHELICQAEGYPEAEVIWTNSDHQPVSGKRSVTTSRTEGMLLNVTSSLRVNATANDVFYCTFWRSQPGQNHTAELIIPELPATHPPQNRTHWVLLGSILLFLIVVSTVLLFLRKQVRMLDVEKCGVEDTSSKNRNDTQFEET
T2 sequence (Q15116 whole entry): as the sequence (Q15116 whole entry) above
T2 sequence (Q9NZQ7 whole entry): as the sequence (Q9NZQ7 whole entry) above
Sequence of Voltage-gated inwardly rectifying potassium channel KCNH2 (Q12809 whole entry): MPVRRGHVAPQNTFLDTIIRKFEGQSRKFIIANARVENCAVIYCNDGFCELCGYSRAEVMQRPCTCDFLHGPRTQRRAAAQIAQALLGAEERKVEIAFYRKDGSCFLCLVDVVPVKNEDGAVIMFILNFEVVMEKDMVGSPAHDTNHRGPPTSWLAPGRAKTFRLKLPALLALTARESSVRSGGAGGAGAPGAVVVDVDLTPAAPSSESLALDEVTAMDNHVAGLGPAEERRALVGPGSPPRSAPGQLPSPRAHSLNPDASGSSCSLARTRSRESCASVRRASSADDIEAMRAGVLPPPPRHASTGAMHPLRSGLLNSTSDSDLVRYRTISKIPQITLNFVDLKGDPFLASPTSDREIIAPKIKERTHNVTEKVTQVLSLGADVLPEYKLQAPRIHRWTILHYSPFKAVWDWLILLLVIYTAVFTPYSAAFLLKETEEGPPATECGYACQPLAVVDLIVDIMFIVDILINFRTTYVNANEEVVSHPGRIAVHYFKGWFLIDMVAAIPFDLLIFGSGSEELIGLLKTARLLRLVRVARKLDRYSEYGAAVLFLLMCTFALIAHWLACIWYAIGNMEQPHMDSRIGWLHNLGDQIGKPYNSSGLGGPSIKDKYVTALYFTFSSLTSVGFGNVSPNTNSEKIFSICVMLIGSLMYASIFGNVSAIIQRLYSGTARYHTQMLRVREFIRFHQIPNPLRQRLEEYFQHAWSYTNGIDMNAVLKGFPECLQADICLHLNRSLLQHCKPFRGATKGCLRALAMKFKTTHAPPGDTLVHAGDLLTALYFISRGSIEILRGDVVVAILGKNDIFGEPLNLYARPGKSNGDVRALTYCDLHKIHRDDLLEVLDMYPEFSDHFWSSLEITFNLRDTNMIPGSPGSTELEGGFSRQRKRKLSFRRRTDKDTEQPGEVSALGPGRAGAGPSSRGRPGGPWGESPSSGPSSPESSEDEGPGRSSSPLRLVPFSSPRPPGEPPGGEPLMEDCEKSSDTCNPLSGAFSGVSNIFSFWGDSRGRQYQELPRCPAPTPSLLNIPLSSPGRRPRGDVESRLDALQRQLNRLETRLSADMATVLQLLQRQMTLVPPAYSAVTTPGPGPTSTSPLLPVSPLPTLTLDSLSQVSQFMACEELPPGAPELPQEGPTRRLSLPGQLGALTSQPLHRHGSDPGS

O=C(O)[C@@H](CO)NCc1cc(Cl)c(OCc2cccc(-c3cccc(OCCCCN4CCC(O)CC4)c3)c2Cl)cc1OCc1ccc2nonc2c1
IC50 [1]: 3.3 nM

O=C(O)[C@@H](CO)NCc1cc(Cl)c(OCc2cccc(-c3cccc(OCCCN(CCO)CCO)c3)c2Cl)cc1OCc1ccc2nonc2c1
Activity (CHO-K1 [2]): Non-Toxic | Kd [3]: 34.1 nM | inhibition [4]: inactive | Activity [5]: 2 RLU | Activity (Jurkat): Active | IC50 [1]: 5.4 nM | EC50 [6]: 353 nM

CCN(CC)C(=O)CCOc1cccc(-c2cccc(COc3cc(OCc4ccc5nonc5c4)c(CN[C@H](CO)C(=O)O)cc3Cl)c2Cl)c1
Activity (CHO-K1 [2]): Non-Toxic | Activity (Jurkat): Active | IC50 [1]: 187 nM | EC50 [7]: Not Active

O=C(O)[C@@H](CO)NCc1cc(Cl)c(OCc2cccc(-c3cccc(OCCCN4CCC(O)CC4)c3)c2Cl)cc1OCc1ccc2nonc2c1
Activity (CHO-K1 [2]): Non-Toxic | Kd [3]: 22.9 nM | inhibition [4]: inactive | Activity [5]: 2.2 RLU | Activity (Jurkat): Active | IC50 [1]: 2.02 nM | EC50 [6]: 158 nM

O=C(O)[C@@H](CO)NCc1cc(Cl)c(OCc2cccc(-c3cccc(OCCCN4CCC(O)CC4)c3)c2F)cc1OCc1ccc2nonc2c1
Tmax [8]: 6 min | logD [9]: 0.67 | Cmax [10]: 45.6 ng/mL | AUC(0-t) at 24 h [11]: 82.1 ng·h/mL | Activity (CHO-K1 [2]): Non-Toxic | half-life [12]: 1.95 h | Activity (CHO-K1 [13]): Active | Activity (CHO-K1 [14]): Active | inhibition (INH) [15]: Not Active | Activity (PBMC [16]): Dose-Dependent Effect | half-life [17]: 5.3 h | Kd [3]: 2 nM | Activity [18]: Non-Toxic | Kd [19]: 31.8 nM | Activity (CHO-K1 [20]): Dose-Dependent Effect | inhibition [4]: inactive | Activity (PBMC [21]): inactive | Activity [5]: 2.3 RLU | Activity [22]: Non-Toxic | Activity (Jurkat): Active | IC50 [1]: 13 nM | Activity (CHO-K1 [23]): Active | Activity (PBMC [24]): Dose-Dependent Effect | Activity (MC-38 [25]): inactive | solubility [26]: 23.6 µM (≈ 17.4 µg/mL) | EC50 [6]: 153 nM | Activity (CT26): inactive

O=C(O)[C@@H](CO)NCc1cc(Cl)c(OCc2cccc(-c3ccccc3)c2Br)cc1OCc1ccc2nonc2c1 [listing 1 of 3 here]
inhibition [4]: inactive | Activity [5]: 1.8 RLU | Activity (Jurkat): Active

O=C(O)[C@@H](CO)NCc1cc(Cl)c(OCc2cccc(-c3cccc(OCCN4CCC(O)CC4)c3)c2Cl)cc1OCc1ccc2nonc2c1
IC50 [1]: 40.5 nM

O=C(O)[C@@H](CO)NCc1cc(Cl)c(OCc2cccc(-c3cccc(OCCCNS(=O)(=O)N4CCOCC4)c3)c2Cl)cc1OCc1ccc2nonc2c1
IC50 [1]: 87.6 nM

O=C(O)[C@@H](CO)NCc1cc(Cl)c(OCc2cccc(-c3cccc(OCCCN4CCOCC4)c3)c2Cl)cc1OCc1ccc2nonc2c1
IC50 [1]: 34.7 nM

COP(=O)(NCCCOc1cccc(-c2cccc(COc3cc(OCc4ccc5nonc5c4)c(CN[C@H](CO)C(=O)O)cc3Cl)c2Cl)c1)OC
IC50 [1]: 746 nM

O=C(O)[C@@H](CO)NCc1cc(Cl)c(OCc2cccc(-c3cccc(OCCCNCCN4CCCCC4)c3)c2Cl)cc1OCc1ccc2nonc2c1
IC50 [1]: 23.8 nM

O=C(O)[C@@H](CO)NCc1cc(Cl)c(OCc2cccc(-c3cccc(OCCCNCCO)c3)c2Cl)cc1OCc1ccc2nonc2c1
IC50 [1]: 6.1 nM

O=C(O)[C@@H](CO)NCc1cc(Cl)c(OCc2cccc(-c3cccc(OCCCCN4CCNCC4)c3)c2Cl)cc1OCc1ccc2nonc2c1
IC50 [1]: 42.1 nM

O=C(O)[C@@H](CO)NCc1cc(Cl)c(OCc2cccc(-c3cccc(OCCCCN4CCC(CO)CC4)c3)c2Cl)cc1OCc1ccc2nonc2c1
IC50 [1]: 3.5 nM

O=C(O)[C@@H](CO)NCc1cc(Cl)c(OCc2cccc(-c3ccccc3)c2Br)cc1OCc1ccc2nonc2c1 [listing 2 of 3 here]
Activity (CHO-K1 [2]): Non-Toxic

O=C(O)[C@@H](CO)NCc1cc(Cl)c(OCc2cccc(-c3cccc(OCCCCN4CCC(O)CC4)c3)c2F)cc1OCc1ccc2nonc2c1
IC50 [1]: 3.1 nM

O=C(O)[C@@H](CO)NCc1cc(Cl)c(OCc2cccc(-c3cccc(OCCCN4CCOCC4)c3)c2F)cc1OCc1ccc2nonc2c1
IC50 [1]: 12.5 nM

O=C(O)[C@@H](CO)NCc1cc(Cl)c(OCc2cccc(-c3cccc(OCCCCN(CCO)CCO)c3)c2Cl)cc1OCc1ccc2nonc2c1
IC50 [1]: 8.2 nM

O=C(O)C1CCN(CCCCOc2cccc(-c3cccc(COc4cc(OCc5ccc6nonc6c5)c(CN[C@H](CO)C(=O)O)cc4Cl)c3Cl)c2)CC1
IC50 [1]: 8.8 nM

O=C(O)[C@@H](CO)NCc1cc(Cl)c(OCc2cccc(-c3ccccc3)c2Br)cc1OCc1ccc2nonc2c1 [listing 3 of 3 here]
inhibition in vivo at 5 mg/kg (MC-38 [27]): 52.5%

O=C(O)[C@@H](CO)NCc1cc(Cl)c(OCc2cccc(-c3cccc(OCCCCN4CCOCC4)c3)c2F)cc1OCc1ccc2nonc2c1
IC50 [1]: 21.2 nM

CCN(CC)CCCOc1cccc(-c2cccc(COc3cc(OCc4ccc5nonc5c4)c(CN[C@H](CO)C(=O)O)cc3Cl)c2Cl)c1
IC50 [1]: 78.3 nM

O=C(O)[C@@H](CO)NCc1cc(Cl)c(OCc2cccc(-c3cccc(OCCN4CCOCC4)c3)c2Cl)cc1OCc1ccc2nonc2c1
IC50 [1]: 121 nM

O=C(O)[C@@H](CO)NCc1cc(Cl)c(OCc2cccc(-c3cccc(OCCN(CCO)CCO)c3)c2Cl)cc1OCc1ccc2nonc2c1
IC50 [1]: 109 nM

Reference: ChEMBL document CHEMBL5518218, “Discovery of Novel PD-L1 Small-Molecular Inhibitors with Potent In Vivo Anti-tumor Immune Activity” (J Med Chem, 2024)
